Results from patent US7074769B2, “Oligonucleotide inhibitors of bcl-xL” (The Trustees of Columbia University in the City of New York, priority 1998, dated 2006).

Tested on: bcl-xL transfected LNCaP cells
Assay: Drug treatment of bcl-xL transfected and parental LNCaP cells
Assay type: cell-based, human
Settings: for apoptosis induction: parental LNCaP cells or neomycin-expressing control-transfected LNCaP cells; for concentration up to which bcl-xL overexpressing LNCaP clones were resistant: treatment for 24 h
Method: LNCaP cells transfected with the neomycin-selectable pSFFV/bcl-xL plasmid or with a control, neomycin-resistant expression vector pSFFV. Aliquots containing 10 μg of plasmid and 5 μg of lipofectin reagent (Life technologies, Inc., Gaithersburg, Md.) in serum-free OPTI-MEM (Life Technologies, Inc.) were added to cultured cells. The transfection media was replaced 4 h later with RPMI-10% FBS medium. Individual colonies were selected from these plates after approximately 3–4 weeks of routine maintenance in RPMI-10% FBS containing 0.6 mg/ml G418 sulfate (Geneticin, Life Technologies, Inc.). The bcl-xL-transformed LNCaP cells were cultured in RPMI-10% FBS, supplemented with 0.3 mg/ml G418 sulfate in 5% CO2 atmosphere.
Two clones of LNCaP cells overexpressing bcl-xL protein (1072-4 and 1072-5) have been obtained after transfection of wild type LNCaP cells with the plasmid vector pSFFV/bcl-xL and lipofectin. Also a mock transfectant clone of LNCaP cells carrying neo® resistance gene (1072-3) was used for the control experiments. […] Western blot analysis for bcl-xL protein was performed as described above. […] For the Northern blot analysis, the total RNA was isolated from the cells using TRIZOL reagent (GIBCO BRL), and 20 μg aliquotes were separated in RNA-formaldehyde gel, blotted onto nylon membranes (Schleicher & Schull), UV-linked and prehybridized for two hours at 42° C. in the standard hybridization solution. Then the blot was hybridized overnight with the PCR-amplified fragment of human bcl-xL cDNA at 42° C. Dcl-xL coding fragment was amplified from pSFFV/bcl-xL plasmid using bcl-x specific primers. The primer sequences were: bcl-x-upstream, 5′-[…]-3′ (SEQ ID NO:36); and bcl-x-downstream, 5′-[…]-3′ (SEQ ID NO:37). Twenty five cycles of amplification were performed in DNA Thermal Cycler (Perkin-Elmer, Norwalk, Conn.) at 94° C. (30 sec), 55° C. (30 sec), and 72° C. (30 sec). The PCR products were analysed on a 1.2% agarose gel. The resultant fragment was labeled by random primer method to the specific activity 10^7 cpm/ng of the probe and used for the hybridization. After washings blots were autoradiographed for 24h at −80° C. Blots were stripped of radioactivity and reprobed with a ^32P-labeled G3PDH probe to confirm the equal loading.
Clonal derivatives of bcl-xL transfected LNCaP cells that were overexpressing high amounts of bcl-xL protein were resistant to taxol (up to 100 nM) and mitoxantrone (up to 4 μM) treatment for 24 h. […] This finding strongly supports the hypothesis that bcl-xL gene product is a factor in the development of chemotherapy resistance in hormone-refractory prostate cancer.

Compound	apoptosis induction	concentration up to which bcl-xL overexpressing LNCaP clones were resistant
O=C1c2c(O)ccc(O)c2C(=O)c2c(NCCNCCO)ccc(NCCNCCO)c21 [mitoxantrone]	induce apoptosis	up to 4 μM
CC(=O)O[C@H]1C(=O)[C@@]2(C)[C@H]([C@H](OC(=O)c3ccccc3)[C@]3(O)C[C@H](OC(=O)[C@H](O)[C@@H](NC(=O)c4ccccc4)c4ccccc4)C(C)=C1C3(C)C)[C@]1(OC(C)=O)CO[C@@H]1C[C@@H]2O [taxol]	induce apoptosis	up to 100 nM
